From the NIST ThermoML archive (doi:10.1021/acs.jced.8b00692)

Assay: xn = mol fraction of the nth substance listed
Conditions: 102 kPa, Liquid; for viscosity: Concentric cylinders viscometry; for speed of sound: Frequency=3 MHz, Single path-length method; for mass density: Vibrating tube method

CCCCCCCCC1CCCCC1 [octylcyclohexane] + CCCCCCCCCCCCCCCC
Conditions | mass density [kg/m3] | speed of sound [m/s] | viscosity [mPa·s]
293.15 K, x1 = 0.2001 | 780.29 | 1361.6 | 3.46
293.15 K, x1 = 0.3999 | 787.74 | 1366.8 | 3.46
293.15 K, x1 = 0.5002 | 791.67 | 1369.7 | 3.46
293.15 K, x1 = 0.6009 | 795.83 | 1372.6 | 3.44
293.15 K, x1 = 0.8006 | 804.62 | 1378.6 | 3.46
293.15 K, x1 = 1 | 814.14 | 1387 | 3.52
303.15 K, x1 = 0.2001 | 773.36 | 1324.4 | 2.75
303.15 K, x1 = 0.3999 | 780.82 | 1329.6 | 2.74
303.15 K, x1 = 0.5002 | 784.77 | 1332.1 | 2.75
303.15 K, x1 = 0.6009 | 788.93 | 1335 | 2.74
303.15 K, x1 = 0.8006 | 797.71 | 1341.3 | 2.76
303.15 K, x1 = 1 | 807.22 | 1349.1 | 2.79
313.15 K, x1 = 0.2001 | 766.44 | 1287.9 | 2.24
313.15 K, x1 = 0.3999 | 773.91 | 1293 | 2.23
313.15 K, x1 = 0.5002 | 777.87 | 1295.4 | 2.24
313.15 K, x1 = 0.6009 | 782.03 | 1298.3 | 2.23
313.15 K, x1 = 0.8006 | 790.79 | 1304.6 | 2.24
313.15 K, x1 = 1 | 800.29 | 1312.1 | 2.27
323.15 K, x1 = 0.2001 | 759.53 | 1252 | 1.85
323.15 K, x1 = 0.3999 | 767 | 1257.2 | 1.84
323.15 K, x1 = 0.5002 | 770.97 | 1259.5 | 1.85
323.15 K, x1 = 0.6009 | 775.12 | 1262.4 | 1.85
323.15 K, x1 = 0.8006 | 783.86 | 1268.6 | 1.85
323.15 K, x1 = 1 | 793.36 | 1275.9 | 1.88
333.15 K, x1 = 0.2001 | 752.62 | 1217.1 | 1.56
333.15 K, x1 = 0.3999 | 760.08 | 1222.1 | 1.55
333.15 K, x1 = 0.5002 | 764.05 | 1224.6 | 1.56
333.15 K, x1 = 0.6009 | 768.2 | 1227.3 | 1.56
333.15 K, x1 = 0.8006 | 776.93 | 1233.7 | 1.56
333.15 K, x1 = 1 | 786.42 | 1240.5 | 1.58
343.15 K, x1 = 0.2001 | 745.7 | – | 1.34
343.15 K, x1 = 0.3999 | 753.2 | – | 1.33
343.15 K, x1 = 0.5002 | 757.2 | – | 1.35
343.15 K, x1 = 0.6009 | 761.3 | – | 1.33
343.15 K, x1 = 0.8006 | 770 | – | 1.34
343.15 K, x1 = 1 | 779.5 | – | 1.36
353.15 K, x1 = 0.2001 | 738.8 | – | 1.15
353.15 K, x1 = 0.3999 | 746.3 | – | 1.15
353.15 K, x1 = 0.5002 | 750.2 | – | 1.15
353.15 K, x1 = 0.6009 | 754.3 | – | 1.15
353.15 K, x1 = 0.8006 | 763.1 | – | 1.16
353.15 K, x1 = 1 | 772.5 | – | 1.16
363.15 K, x1 = 0.2001 | 731.8 | – | 1.02
363.15 K, x1 = 0.3999 | 739.3 | – | 1
363.15 K, x1 = 0.5002 | 743.3 | – | 1.03
363.15 K, x1 = 0.6009 | 747.4 | – | 1.01
363.15 K, x1 = 0.8006 | 756.1 | – | 1.01
363.15 K, x1 = 1 | 765.5 | – | 1.04
373.15 K, x1 = 0.2001 | 724.8 | – | 0.887
373.15 K, x1 = 0.3999 | 732.3 | – | 0.889
373.15 K, x1 = 0.5002 | 736.3 | – | 0.89
373.15 K, x1 = 0.6009 | 740.4 | – | 0.895
373.15 K, x1 = 0.8006 | 749.1 | – | 0.897
373.15 K, x1 = 1 | 758.5 | – | 0.899
